Test results from patent publication US20040006070A1, “Intraspinal continuous infusion of midazolam hydrochloride for the treatment of pain” (priority 2002, published 2004).
Structures can show the parent of a compound that is named as a salt.

Experiment: Bloodwork: complete blood count, electrolytes, extended blood chemistry
Assay type: in vivo, sheep
Method: Indirect blood pressure, pulse recording, pain testing (mechanical stimulus device, cold and warm water baths see description in procedure) and weight were taken on days 1, 3, 7, 15, 22, 29, 36, and 43. Venous blood samples (15 ml drawn from the jugular vein with Vacutainer brand blood collection tubes) for complete blood count, electrolytes, and extended blood chemistry were drawn on days 1, 15, and 43 (mild procedure only light hand restraint necessary).

[1] = sheep Chicken Hawk #87, 5 mg/day, Day 1
[2] = sheep Chicken Hawk #87, 5 mg/day, Day 15
[3] = sheep Chicken Hawk #87, 5 mg/day, Day 43
[4] = sheep Elmer Fudd #437, 5 mg/day, Baseline
[5] = sheep Elmer Fudd #437, 5 mg/day, Day 1
[6] = sheep Elmer Fudd #437, 5 mg/day, Day 15
[7] = sheep Elmer Fudd #437, 5 mg/day, Day 43

Cc1ncc2n1-c1ccc(Cl)cc1C(c1ccccc1F)=NC2 [Midazolam, midazolam hydrochloride]
Glucose [1]: 67 mg/dL
Hct [1]: 34.1%
Hgb [1]: 11.7 g/dL
K+ [1]: 4.5 mEq/l
MCH [1]: 30.9 pg
MCHC [1]: 34.3 g/dL
MCV [1]: 30.19 fL
Na+ [1]: 150 mEq/l
Phos [1]: 6.6 mg/dL
Platlet Count [1]: 1.28e+06 µL⁻¹
RBC [1]: 1.1e+07 µL⁻¹
Total Bili [1]: 0.1 mg/dL
Total Prot [1]: 5.7 g/dL
WBC [1]: 6000 µL⁻¹
ALT [2]: 6 U/L
AST [2]: 58 U/L
Albumin [2]: 3.8 g/dL
Alk Phos [2]: 79 U/L
BUN [2]: 17 mg/dL
CPK [2]: 425 U/L
Cholesterol [2]: 61 mg/dL
Creatinine [2]: 1.3 mg/dL
Differential Count: Atyp lym [2]: 0%
Differential Count: Baso [2]: 1%
Differential Count: Eosin [2]: 4%
Differential Count: Lymph [2]: 62%
Differential Count: Mono [2]: 4%
Differential Count: Seg [2]: 29%
Gamma GT [2]: 64 U/L
Glucose [2]: 79 mg/dL
Hct [2]: 29.8%
Hgb [2]: 10.0 g/dL
K+ [2]: 4.7 mEq/l
MCH [2]: 10.4 pg
MCHC [2]: 33.6 g/dL
MCV [2]: 30.8 fL
Na+ [2]: 148 mEq/l
Phos [2]: 5.0 mg/dL
Platlet Count [2]: 1.018e+06 µL⁻¹
RBC [2]: 9.7e+06 µL⁻¹
Total Bili [2]: 0.1 mg/dL
Total Prot [2]: 6.2 g/dL
WBC [2]: 5690 µL⁻¹
ALT [3]: 8 U/L
AST [3]: 62 U/L
Albumin [3]: 3.8 g/dL
Alk Phos [3]: 149 U/L
BUN [3]: 14 mg/dL
CPK [3]: 61 U/L
Cholesterol [3]: 62 mg/dL
Creatinine [3]: 1.1 mg/dL
Differential Count: Atyp lym [3]: 1%
Differential Count: Baso [3]: 1%
Differential Count: Eosin [3]: 5%
Differential Count: Lymph [3]: 53%
Differential Count: Mono [3]: 3%
Differential Count: Seg [3]: 37%
Gamma GT [3]: 55 U/L
Glucose [3]: 82 mg/dL
Hct [3]: 32.3%
Hgb [3]: 10.7 g/dL
K+ [3]: 5.0 mEq/l
MCH [3]: 10.5 pg
MCHC [3]: 33.0 g/dL
MCV [3]: 31.7 fL
Na+ [3]: 147 mEq/l
Phos [3]: 6.5 mg/dL
Platlet Count [3]: 891000 µL⁻¹
RBC [3]: 1.02e+07 µL⁻¹
Total Bili [3]: 0.1 mg/dL
Total Prot [3]: 6.5 g/dL
WBC [3]: 5130 µL⁻¹
Differential Count: Atyp lym [4]: 0%
Differential Count: Bands [4]: 0%
Differential Count: Eosin [4]: 54%
Differential Count: Lymph [4]: 35%
Differential Count: Mono [4]: 9%
Differential Count: Seg [4]: 51%
Hct [4]: 38.5%
Hgb [4]: 13.4 g/dL
MCH [4]: 12.0 pg
MCHC [4]: 34.7 G/dl
MCV [4]: 34.5 fL
Platlet Count [4]: 562000 µL⁻¹
RBC [4]: 1.12e+07 µL⁻¹
WBC [4]: 5320 µL⁻¹
ALT [5]: 8 U/L
AST [5]: 70 U/L
Albumin [5]: 4.1 g/dL
Alk Phos [5]: 49 U/L
BUN [5]: 17 mg/dL
CPK [5]: 49 U/L
Cholesterol [5]: 78 mg/dL
Creatinine [5]: 1.3 mg/dL
Differential Count: Atyp lym [5]: 0%
Differential Count: Bands [5]: 1%
Differential Count: Eosin [5]: 1%
Differential Count: Lymph [5]: 31%
Differential Count: Mono [5]: 6%
Differential Count: Seg [5]: 61%
Gamma GT [5]: 51 U/L
Glucose [5]: 104 mg/dL
Hct [5]: 36.1%
Hgb [5]: 12.4 g/dL
K+ [5]: 4.7 mEq/l
MCH [5]: 11.4 pg
MCHC [5]: 34.3 G/dl
MCV [5]: 33.4 fL
Na+ [5]: 150 mEq/l
Phos [5]: 5.9 mg/dL
Platlet Count [5]: 788000 µL⁻¹
RBC [5]: 1.08e+07 µL⁻¹
Total Bili [5]: 0.1 mg/dL
Total Prot [5]: 7.4 g/dL
WBC [5]: 6600 µL⁻¹
ALT [6]: 6 U/L
AST [6]: 67 U/L
Albumin [6]: 3.8 g/dL
Alk Phos [6]: 88 U/L
BUN [6]: 15 mg/dL
CPK [6]: 77 U/L
Cholesterol [6]: 74 mg/dL
Creatinine [6]: 1.2 mg/dL
Differential Count: Atyp lym [6]: 0%
Differential Count: Bands [6]: 0%
Differential Count: Eosin [6]: 10%
Differential Count: Lymph [6]: 39%
Differential Count: Mono [6]: 2%
Differential Count: Seg [6]: 49%
Gamma GT [6]: 54 U/L
Glucose [6]: 73 mg/dL
Hct [6]: 37.3%
Hgb [6]: 12.7 g/dL
K+ [6]: 4.7 mEq/l
MCH [6]: 11.2 pg
MCHC [6]: 34.1 G/dl
MCV [6]: 32.8 fL
Na+ [6]: 149 mEq/l
Phos [6]: 6.6 mg/dL
Platlet Count [6]: 677000 µL⁻¹
RBC [6]: 1.14e+07 µL⁻¹
Total Bili [6]: 0.1 mg/dL
Total Prot [6]: 6.8 g/dL
WBC [6]: 4990 µL⁻¹
ALT [7]: 9 U/L
AST [7]: 61 U/L
Albumin [7]: 4.1 g/dL
Alk Phos [7]: 72 U/L
BUN [7]: 16 mg/dL
